Data on 89 compounds can be found in a melting point compilation (Tetko et al.; mined from patent text by program, amines drawn as free bases though some values may be those of a salt).

Where only a bound is given, the exact number is not on record here.

Regarding `C=CCNC(=O)N1CC(Oc2cccc(Cl)c2)C1`, the melting point fell in the range of 87 to 89 °C.
`O=[N+]([O-])c1cc(O)c(OCCOCCO)cc1[N+](=O)[O-]`: the melting point is 135 °C.
Compound `CCC(=O)Nc1cccc(NC(=O)C=C(C)OC)c1` showed a melting point of 155 °C.
Under `O/N=C(\CCN1CCN(c2ccccn2)CC1)c1ccc(Cl)cc1` stands 188 to 190 °C; under `CS(=O)(=O)N(Cc1cccnc1)c1ccccc1F`, 120 °C; under `O=C(NC(=O)c1c(F)cccc1F)Nc1ccc(SC(F)(F)C(F)F)cc1F`, 177 to 179 °C.
In turn, `CCOC(=O)C1=C(NC(=O)Nc2cc(C(=O)OC(C)C)c(Br)cc2F)CCC1` registered a melting point of 150 to 154 °C.
Next, `CN1CCC23CC(=O)C=CC2C1Cc1cccc(Oc2nnnn2-c2ccccc2)c13` (centres undefined): 172 to 174 °C.
The compound `O=C1CC2CCSc3ccccc3C2=NN1c1ccccc1` (centres undefined) registered a melting point of 138 to 140 °C.
Next, `O=C1c2ccccc2C(=O)N1CC1CC1c1cccc2nnsc12` (centres undefined): 123 to 125 °C; `N#Cc1ccc(NC(=O)c2ccccc2SSc2ccccc2C(=O)Nc2ccc(C#N)cc2)cc1`: 239 to 241 °C; `CCOC(=O)C=Cc1cc(Br)cc(C(O)c2ccc(F)cc2)c1` (centres undefined): 82 to 84 °C.
Under `Cn1c(=O)n(C(=O)OC(C)(C)C)c2ccc(Br)cc21` stands 98 to 99 °C; under `CC(C)(C)Cc1c(CC(C)(C)C(=O)O)n(Cc2ccc(Cl)cc2)c2ccc(OCc3ccc4occc4n3)cc12`, 172 to 173 °C.
Take `CC1(C)OC(=O)C(OC2CCCCC2)=C1c1ccc(S(C)(=O)=O)cc1`: the melting point fell in the range of 143 to 144 °C.
For the compound `COCC(=O)N(C)c1ccc(NC(=O)[C@H]2C[C@@H](O)CN2C(=O)Nc2ccc(Cl)cc2)cc1`, the melting point came to 84 °C.
Next, `COc1ccc2c(c1)c(CC(=O)O)c(C)n2-c1ncnc2cc(Cl)ccc12`: 202 to 204 °C; `NP(=O)(O)CCc1ccccc1`: 226 °C; `O=C(NCc1ccc(Cl)cc1)c1cnc2c(OCCO)cc(CCCO)cc2c1O`: 250 to 252 °C.
As to `COC(=O)c1c(C)nc2ccc(Br)cc2c1NCc1ccccc1`, the melting point is 89 °C.
The compound `CC(C)(C)Nc1c(NCc2ccc(F)cc2)c(=O)c1=O` came in with a melting point of 296 to 298 °C.
Compound `CSC(=C[N+](=O)[O-])NCCSCc1nccs1` gave a melting point of 63 to 64 °C.
Next, `CC(=O)OCC(=O)C1(O)CCC2C3CCC4=CC(=O)CCC4(C)C3CCC21C` (centres undefined): 236 °C; `NC(=O)c1c(Cl)cc(Cl)c(CC(=O)O)c1Cl`: 211 °C; `Cc1cc(O)ccc1-c1cc2ccccc2[nH]1`: 106 °C.
For the compound `COC(=O)c1ccc(O)c(C=O)c1`, the melting point lay within 80 to 81 °C.
Next, `Cc1ccc(-c2cccc3ccccc23)n1CC[C@H]1C[C@H](O)CC(=O)O1` (relative stereo): 137 to 138 °C; `Cc1cc2cc(CN3CCC(CC(=O)N(C)C)CC3)cnc2cc1NC(=O)c1ccc(-c2ccc(F)cc2)cc1`: 219 °C.
In the case of `C#CCn1c(-c2ccccc2)nc(C(=O)N(C)C)c(C)c1=O`, the melting point fell in the range of 137 to 140 °C.
`CCOC(=O)C(Cc1ccc2ccccc2n1)(OC1CCCCO1)C(=O)OCC` (centres undefined) gave a melting point of 75 to 78 °C.
`CCOC(=O)c1cn2c3c(c(F)c(F)c(N)c3c1=O)CCN2C` came in with a melting point of 255 to 257 °C.
Under `CCOC(=O)C1CCN(c2ncc(NS(=O)(=O)c3ccccc3Br)c(NCc3ccc4c(c3)OCO4)n2)CC1` stands 160 to 161 °C; under `COc1cc(C(C)C#Cc2cnc(N)nc2N)cc(OC)c1OC` (centres undefined), 220 to 222 °C; under `COc1cc(OC)c2c(=O)[nH]c(-c3ccc(O)cc3)nc2c1`, 303 to 305 °C.
Under `N#CCc1ccc(OCc2ccccc2)c2c1OCCO2` stands 95 °C; under `C#CCOc1ccc(Br)cn1`, 58 to 60 °C.
For `CC12CC(N3CCC4(CC3)OCCO4)C(O)CC1CCC1C2CCC2(C)C(O)C(N3CCC4(CC3)OCCO4)CC12` (centres undefined), the melting point was 180 to 182 °C.
Under `O=C1N(Cc2ncc(F)cc2F)c2ccccc2C12COc1cc3c(cc12)OCCO3` (centres undefined) stands 220 to 222 °C.
Next, `C#CCOc1cc(C(=O)O)cc(S(N)(=O)=O)c1-c1ccccc1`: 154 to 155 °C.
`O=C(O)Cc1ccc(NC(=O)C(COc2ccc(Cl)cc2)NS(=O)(=O)c2ccc(Br)cc2)cc1` (racemic) displayed a melting point of 218 to 220 °C.
Next, `CS(=O)c1ccc(-c2nc(S)[nH]c2-c2ccc(S(C)=O)cc2)cc1` (centres undefined): 261 to 262 °C.
On to `O=C1Cc2cccc(Oc3ccccc3F)c2O1`, for which the melting point was in the range of 82 to 84 °C.
In the case of `COc1ccc(C(=O)Nc2ccc(F)cc2)cc1Nc1ccc(F)cc1`, the melting point was in the range of 193 to 194 °C.
Next, `CCCCn1cc(C(=O)O)c(=O)c2cc(C)sc21`: 172 to 173 °C; `O=C1CCCc2cc(OCCOc3ccccc3)ccc21`: 109 to 113 °C.
For the compound `ON=Cc1cn(C(c2ccccc2)(c2ccccc2)c2ccccc2)c(F)n1`, the melting point fell in the range of 147 to 149 °C.
`CCc1c(Sc2cc(C)cc(C)c2)n(CC2=CCCC2CO)c(=O)[nH]c1=O` (centres undefined) returned a melting point of 59 to 60 °C.
Regarding `CC(C)(C)Oc1ccc(C(=O)NCCCCCCCNC(=O)c2ccc(OC(C)(C)C)cc2)cc1`, the melting point fell in the range of 135 to 136 °C.
`COc1cc(OC)c2c(C)c(CCN3CCC(O)(c4ccccc4)CC3)c(=O)oc2c1` showed a melting point of 178 to 179 °C.
Under `O=C(NO)[C@H](CNCS(=O)(=O)c1ccc(OCc2ccccc2)cc1)N1CCCCC1` stands 102 °C; under `CSc1snc(SCOCC#CI)c1C#N`, 87 to 88 °C; under `CCCCN(CCCC)Cc1nnc(-c2ncn3c2CN(C)C(=O)c2ccccc2-3)o1`, 211 to 213 °C.
Under `COc1ccc(CCN2CCC(N3CCc4ccc(CNC(C)=O)cc43)CC2)cc1` stands 151 to 152 °C.
Next, `COc1ccc(N(C)C(=O)CN2C(=O)c3ccccc3C2=O)c(OC)c1COc1cccc2ccc(C)nc12`: 184 to 185 °C; `O=C(NCCC(F)=C(F)F)N(c1ccccc1)c1ccccc1`: 116 to 117 °C; `COc1ccc2c(c1)Oc1c(cccc1OCc1ccccc1)C2`: 107 to 108 °C.
In turn, `CN1C(=O)CC[C@]2(C)c3ccc(Sc4nc5cc(Cl)ccc5s4)cc3CC[C@@H]12` returned a melting point of 179 to 180 °C.
Next, `Cc1nc(C(Br)Br)nc(C(Br)Br)n1`: 87 to 88.5 °C; `CC1(C)C(N)CN1c1nc2c(cc1F)c(=O)c(C(=O)O)cn2C1CC1` (centres undefined): 190 to 195 °C.
Compound `O=C(O)c1ccc2c([N+](=O)[O-])c(O)c(O)cc2c1` had a melting point above 310 °C.
Next, `Cn1c2c(ccc1=O)C(NCCc1ccc([N+](=O)[O-])cc1)CCC2` (centres undefined): 138 to 139 °C; `COCC(=O)NNC(=O)N1Cc2ccccc2Oc2ccc(Cl)cc21`: 167 to 169 °C.
Consider `Cc1[nH]cnc1CSCCNc1ncc(Cc2ccn(C)c(=O)c2)c(=O)[nH]1`, for which the melting point lay in the range of 202 to 204 °C.
Next, `Oc1ccc2c(NCCN3CCOCC3)noc2c1`: 151 to 152 °C.
Under `O=C1Nc2ccc(CN3C(=O)CSC3=O)c(F)c2C1=Cc1cc(CN2CCOCC2)c[nH]1` stands 246 to 248 °C.
`O=C(O)c1cc(-c2ccc(OCc3ccccc3)cc2OCc2ccccc2)n[nH]1` showed a melting point of 218 to 219 °C.
In turn, `COc1ccc(C(=O)COC(C)=O)cc1OC` had a melting point of 82 to 84 °C.
Under `N#CCc1ccc(C(=O)c2ccc(Cl)cc2)n1Cc1ccccc1` stands 104 to 106 °C.
For the compound `CS(=O)(=O)C(=C1CN(C(c2ccccc2)c2ccccc2)C1)c1cccc(Cl)c1Cl`, the melting point amounted to 201 °C.
In turn, `Nc1cc(-c2cccnc2)nc(-c2ccco2)n1` came in with a melting point of 233 °C.
Next, `CSC(=NC(=O)N(C)C)NC(=O)N(C)C`: 116 to 118 °C; `O=C1CSc2cccc(Cl)c2N1`: 160 to 161 °C.
Under `COCC(=O)Nc1nc(N)nc(NC2CC2)n1` stands 152 to 157 °C; under `CSCC(=O)[C@H](Cc1cccs1)NC(=O)[C@H](CC(C)C)NC(=O)OCc1ccccc1`, 93 to 97 °C.
As for `COc1ccc(-c2cc3nccnc3[nH]2)cc1OCC(=O)O`, the melting point lay in the range of 330 to 332 °C.
With `COc1cc(Cc2cnc(N)nc2N)cc2c1OC(C)(C)C=C2c1cccc([N+](=O)[O-])c1`, the melting point is 253 to 254 °C.
Under `CCOC(=O)c1cc(=O)c(Cl)c(-c2ccccc2)o1` stands 103 to 105 °C; under `CC1CC(=O)NN=C1c1ccc2nc(C3CC3)n(Cc3ccc(-c4ccccc4-c4nnn[nH]4)cc3)c2c1` (centres undefined), 216 °C.
Under `COc1cc(CCCC2OC(=O)NC2=O)ccc1OCc1csc(CCc2ccccc2)n1` (centres undefined) stands 136 to 137 °C; under `O=C(O)c1nc2c(=O)[nH]c3cc(C(F)(F)F)ccc3n2c1CNCc1ccccc1`, 248 °C.
Under `CCOC(=O)C(=O)Nc1ccc(-n2ccnc2)cc1` stands 177 to 180 °C.
`CSc1nn2c(N)cc(N3CCN(C)CC3)nc2c1S(=O)(=O)c1ccccc1` returned a melting point above 230 °C.
`CC/C=C/c1nc(Cl)c(C=O)n1Cc1ccc(-c2ccccc2C(=O)O)cc1` came in with a melting point of 164 to 166 °C.
Under `CC(C)c1ncc(CCCOc2nn(Cc3ccccc3)cc2CC(=O)O)c(Oc2ccc(Cl)cc2Cl)n1` stands 98 to 99 °C; under `Nc1ccc(F)c(Br)c1F`, 77 to 78 °C; under `Clc1cc(OCCOc2ccc3ccccc3c2)cc(Cl)c1Br`, 140 to 142 °C.
`COc1ccc(C(=O)N2CCCC2=O)cc1` had a melting point of 120 °C.
In turn, `CCOC(=O)c1c(C)nc2cc(OC)c(OC)cc2c1-c1ccc(OC)c(OC)c1` yielded a melting point of 147 to 148 °C.
Next, `CC(C)(C)c1cc(C2CC(=O)N(c3ccccc3)C2=O)cc(C(C)(C)C)c1O` (centres undefined): 204 °C.
